Tests used:
Type in all cases: biochemical, Prescottella equi
Settings in all cases: 50 mM HEPES pH 7.5, 25 °C (Methods: 2.5 mM HEPES)
[1] = system: ReNHase (Fe-type nitrile hydratase); test: spectrophotometric, […],4-dihydroxybenzamide formation at […] nm
[2] = system: ReNHase (Fe-type nitrile hydratase); test: spectrophotometric, 3-hydroxybenzamide formation at […] nm
[3] = system: ReNHase (Fe-type nitrile hydratase); test: spectrophotometric, acetamide formation at […] nm
[4] = system: ReNHase (Fe-type nitrile hydratase); test: spectrophotometric, acrylamide formation at […] nm
[5] = system: ReNHase (Fe-type nitrile hydratase); test: spectrophotometric, benzamide formation at […] nm

`N#Cc1ccc(O)c(O)c1` [3,4-dihydroxybenzonitrile] gave a Km [1] of 168 ± 21 µM.

`N#Cc1cccc(O)c1` [3-hydroxybenzonitrile] gave a Km [2] of 77 ± 17 µM.

With `CC#N` [acetonitrile] the “Km (μM)” value [3] was 25 000 ± 2000 μM.

With `C=CC#N` [acrylonitrile] the “Km (μM)” value [4] was 25 000 ± 11 000 μM.

`N#Cc1ccccc1` [benzonitrile] was tested, and the Km [5] was 13.2 ± 1.4 µM.

Source: article PMC8721871 (Biochemistry, 2021)
